According to patent US20250262222A1, “HETEROCYCLIC COMPOUNDS, COMPOSITIONS THEREOF, AND METHODS OF TREATMENT THEREWITH” (BeiGene Switzerland GmbH, priority 2022, published 2025):

Each molecule was assayed on pERK1/2(THR202/TYR204) level in AsPC-1 cell line (assay: KRAS G12D pERK assay). Details: Homo sapiens, ASPC1, 2 h, AsPC-1 cells, 2 h compound treatment, HTRF.
Format: cell-based
Method: AsPC-1 cell line was used in this study. Cells were maintained in RPMI-1640 supplemented with 10% fetal bovine serum (Thermo Fisher), 50 units/mL penicillin and streptomycin (Thermo Fisher) and kept at 37° C. in a humidified atmosphere of 5% CO2 in air. Cells were reinstated from frozen stocks that were laid down within 30 passages from the original cells purchased. 30000 cells per well were seeded into a 96-well plate and incubated overnight. Cells were treated with a 10-point dilution series. The final compound concentration is from 0 to 10 μM. After 2 h compound treatment, cells were lysed, and the pERK1/2(THR202/TYR204) level in the cell lysates was detected by HTRF kit (Cisbio). In brief, a total of 16 μL of cell lysate from each well of a 96-well plate was transferred to a 384-well white assay plate. Lysate from each well was incubated with 2 μL of Eu3+-cryptate (donor) labeled anti-phospho-ERK1/2 and 2 μL of D2 (acceptor) labeled anti-phospho-ERK1/2 antibodies (Cisbio) overnight in dark at room temperature. When donor and acceptor are in close proximity, excitation of the donor with laser triggers a Fluorescence Resonance Energy Transfer (FRET) towards the acceptor, which in turn fluoresces at 655 nm wavelength. FRET signals were measured using a PHERAstar FSX reader (BMG Labtech). IC50 determination was performed by fitting the curve of percent inhibition versus the log of the inhibitor concentration using Dotmatics.

Structure (SMILES) | IC50
Nc1cc(Cl)c(C(F)(F)F)c(-c2nc3c4c(nc(OCC56COCC(F)(C5)C6)nc4c2F)N2C[C@H]4CC[C@H](N4)[C@H]2CCO3)c1 [Example 37, 3-chloro-5-((6aR,7S,10R)-1-fluoro-13-((5-fluoro-3-oxabicyclo[3.1.1]heptan-1-yl)methoxy)-5,6,6a,7,8,9,10,11-octahydro-4-oxa-3,11a,12,14,15-pentaaza-7,10-methanocyclohepta[4,5]cyclo-octa[1,2,3-de]naphthalen-2-yl)-4-(trifluoromethyl)aniline] | 97 nM
CC12COCC(COc3nc4c5c(nc(-c6cc(N)cc(Cl)c6C(F)(F)F)c(F)c5n3)OCC[C@@H]3[C@@H]5CC[C@H](CN43)N5)(C1)C2 [Example 48, 3-chloro-5-((6aR,7S,10R)-1-fluoro-13-((5-methyl-3-oxabicyclo[3.1.1]heptan-1-yl)methoxy)-5,6,6a,7,8,9,10,11-octahydro-4-oxa-3,11a,12,14,15-pentaaza-7,10-methanocyclohepta[4,5]cyclo-octa[1,2,3-de]naphthalen-2-yl)-4-(trifluoromethyl)aniline] | 296 nM
Nc1cc(Cl)c(C(F)(F)F)c(-c2nc3c4c(nc(OCC56COC(CF)(C5)C6)nc4c2F)N2C[C@H]4CC[C@H](N4)[C@H]2CCO3)c1 [Example 50, 3-chloro-5-((6aR,7S,10R)-1-fluoro-13-((1-(fluoromethyl)-2-oxabicyclo[2.1.1]hexan-4-yl)methoxy)-5,6,6a,7,8,9,10,11-octahydro-4-oxa-3,11a,12,14,15-pentaaza-7,10-methanocyclohepta[4,5]cyclo-octa[1,2,3-de]naphthalen-2-yl)-4-(trifluoromethyl)aniline] | 109 nM
CC1(COc2nc3c4c(nc(-c5cc(N)cc(Cl)c5C(F)(F)F)c(F)c4n2)OCC[C@@H]2[C@@H]4CC[C@H](CN32)N4)COC1 [Example 66, 3-chloro-5-((6aR,7S,10R)-1-fluoro-13-((3-methyloxetan-3-yl)methoxy)-5,6,6a,7,8,9,10,11-octahydro-4-oxa-3,11a,12,14,15-pentaaza-7,10-methanocyclohepta[4,5]cyclo-octa[1,2,3-de]naphthalen-2-yl)-4-(trifluoromethyl)aniline] | 145 nM
COC1(COc2nc3c4c(nc(-c5cc(N)cc(Cl)c5C(F)(F)F)c(F)c4n2)OCC[C@@H]2[C@@H]4CC[C@H](CN32)N4)COC1 [Example 61, 3-chloro-5-((6aR,7S,10R)-1-fluoro-13-((3-methoxyoxetan-3-yl)methoxy)-5,6,6a,7,8,9,10,11-octahydro-4-oxa-3,11a,12,14,15-pentaaza-7,10-methanocyclohepta[4,5]cyclo-octa[1,2,3-de]naphthalen-2-yl)-4-(trifluoromethyl)aniline] | 332 nM
Nc1cc(Cl)c(C(F)(F)F)c(-c2nc3c4c(nc(OCC56COCC(C5)C6)nc4c2F)N2C[C@H]4CC[C@H](N4)[C@H]2CCO3)c1 [Example 67, 3-((6aR,7S,10R)-13-((3-oxabicyclo[3.1.1]heptan-1-yl)methoxy)-1-fluoro-5,6,6a,7,8,9,10,11-octahydro-4-oxa-3,11a,12,14,15-pentaaza-7,10-methanocyclohepta[4,5]cyclo-octa[1,2,3-de]naphthalen-2-yl)-5-chloro-4-(trifluoromethyl)aniline] | 169 nM
CCc1cc(N)cc(-c2nc3c4c(nc(OCC56COC(C5)C6)nc4c2F)N2C[C@H]4CC[C@H](N4)[C@H]2CCO3)c1C(F)(F)F [Example 68, 3-((6aR,7S,10R)-13-((2-oxabicyclo[2.1.1]hexan-4-yl)methoxy)-1-fluoro-5,6,6a,7,8,9,10,11-octahydro-4-oxa-3,11a,12,14,15-pentaaza-7,10-methanocyclohepta[4,5]cycloocta[1,2,3-de]naphthalen-2-yl)-5-ethyl-4-(trifluoromethyl)aniline] | 548 nM
CN1C(=O)OC2CC1(COc1nc3c4c(nc(-c5cc(N)cc(Cl)c5C(F)(F)F)c(F)c4n1)OCC[C@@H]1[C@@H]4CC[C@H](CN31)N4)C2 [Example 46, 5-((((6aR,7S,10R)-2-(5-amino-3-chloro-2-(trifluoromethyl)phenyl)-1-fluoro-5,6,6a,7,8,9,10,11-octahydro-4-oxa-3,11a,12,14,15-pentaaza-7,10-methanocyclohepta[4,5]cyclo-octa[1,2,3-de]naphthalen-13-yl)oxy)methyl)-4-methyl-2-oxa-4-azabicyclo[3.1.1]heptan-3-one] | 4860 nM
Cc1cc(N)cc(-c2nc3c4c(nc(OCC56COC(C)(C5)C6)nc4c2F)N2C[C@H]4CC[C@H](N4)[C@H]2CCO3)c1C(F)(F)F [Example 28, 3-((6aR,7S,10R)-1-fluoro-13-((1-methyl-2-oxabicyclo[2.1.1]hexan-4-yl)methoxy)-5,6,6a,7,8,9,10,11-octahydro-4-oxa-3,11a,12,14,15-pentaaza-7,10-methanocyclohepta[4,5]cyclo-octa[1,2,3-de]naphthalen-2-yl)-5-methyl-4-(trifluoromethyl)aniline] | 152 nM
CCOC(=O)N1CC(C)(COc2nc3c4c(nc(-c5cc(N)cc(Cl)c5C(F)(F)F)c(F)c4n2)OCC[C@@H]2[C@@H]4CC[C@H](CN32)N4)C1 [Example 33, ethyl 3-((((6aR,7S,10R)-2-(5-amino-3-chloro-2-(trifluoromethyl)phenyl)-1-fluoro-5,6,6a,7,8,9,10,11-octahydro-4-oxa-3,11a,12,14,15-pentaaza-7,10-methanocyclohepta[4,5]cyclo-octa[1,2,3-de]naphthalen-13-yl)oxy)methyl)-3-methylazetidine-1-carboxylate] | 286 nM
Nc1cc(Cl)c(C(F)(F)F)c(-c2nc3c4c(nc(OC[C@@]56CCCN5C[C@H](F)C6)nc4c2F)N2C[C@H]4CC[C@H](N4)[C@H]2CO3)c1 [Example 17, 3-chloro-5-((5aS,6S,9R)-1-fluoro-12-(((2R,7aS)-2-fluorotetrahydro-1H-pyrrolizin-7a(5H)-yl)methoxy)-5a,6,7,8,9,10-hexahydro-5H-4-oxa-3,10a,11,13,14-pentaaza-6,9-methanonaphtho[1,8-ab]heptalen-2-yl)-4-(trifluoromethyl)aniline] | 11 nM
C[C@](O)(COc1nc2c3c(nc(-c4cc(N)cc(Cl)c4C(F)(F)F)c(F)c3n1)OCC[C@@H]1[C@@H]3CC[C@H](CN21)N3)C(F)(F)F [Example 44, (S)-3-(((6aR,7S,10R)-2-(5-amino-3-chloro-2-(trifluoromethyl)phenyl)-1-fluoro-5,6,6a,7,8,9,10,11-octahydro-4-oxa-3,11a,12,14,15-pentaaza-7,10-methanocyclohepta[4,5]cyclo-octa[1,2,3-de]naphthalen-13-yl)oxy)-1,1,1-trifluoro-2-methylpropan-2-ol] | 2220 nM
Cc1cc(N)cc(-c2nc3c4c(nc(OCC56COCC(F)(C5)C6)nc4c2F)N2C[C@H]4CC[C@H](N4)[C@H]2CCO3)c1C(F)(F)F [Example 30, 3-((6aR,7S,10R)-1-fluoro-13-((5-fluoro-3-oxabicyclo[3.1.1]heptan-1-yl)methoxy)-5,6,6a,7,8,9,10,11-octahydro-4-oxa-3,11a,12,14,15-pentaaza-7,10-methanocyclohepta[4,5]cyclo-octa[1,2,3-de]naphthalen-2-yl)-5-methyl-4-(trifluoromethyl)aniline] | 198 nM
CN1C(=O)OC2(C)CC1(COc1nc3c4c(nc(-c5cc(N)cc(Cl)c5C(F)(F)F)c(F)c4n1)OCC[C@@H]1[C@@H]4CC[C@H](CN31)N4)C2 [Example 47, 5-((((6aR,7S,10R)-2-(5-amino-3-chloro-2-(trifluoromethyl)phenyl)-1-fluoro-5,6,6a,7,8,9,10,11-octahydro-4-oxa-3,11a,12,14,15-pentaaza-7,10-methanocyclohepta[4,5]cyclo-octa[1,2,3-de]naphthalen-13-yl)oxy)methyl)-1,4-dimethyl-2-oxa-4-azabicyclo[3.1.1]heptan-3-one] | 1930 nM
CC12CC(COc3nc4c5c(nc(-c6cc(N)cc(Cl)c6C(F)(F)F)c(F)c5n3)OCC[C@@H]3[C@@H]5CC[C@H](CN43)N5)(CO1)C2 [Example 34, 3-chloro-5-((6aR,7S,10R)-1-fluoro-13-((1-methyl-2-oxabicyclo[2.1.1]hexan-4-yl)methoxy)-5,6,6a,7,8,9,10,11-octahydro-4-oxa-3,11a,12,14,15-pentaaza-7,10-methanocyclohepta[4,5]cyclo-octa[1,2,3-de]naphthalen-2-yl)-4-(trifluoromethyl)aniline] | 82 nM
Nc1cc(Cl)c(C(F)(F)F)c(-c2nc3c4c(nc(OCC56COC(C(F)(F)F)(C5)C6)nc4c2F)N2C[C@H]4CC[C@H](N4)[C@H]2CCO3)c1 [Example 53, 3-chloro-5-((6aR,7S,10R)-1-fluoro-13-((1-(trifluoromethyl)-2-oxabicyclo[2.1.1]hexan-4-yl)methoxy)-5,6,6a,7,8,9,10,11-octahydro-4-oxa-3,11a,12,14,15-pentaaza-7,10-methanocyclohepta[4,5]cyclo-octa[1,2,3-de]naphthalen-2-yl)-4-(trifluoromethyl)aniline] | 211 nM
